Article PMC3400893 (Clinical Pharmacology and Therapeutics, 2012)
Blank lines part the entries; values can stand above or below the molecule they belong to.

Tests used:
patients with T2DM [1] = assay: 28-day randomized placebo-controlled study: efficacy/pharmacodynamics; assay type: in vivo, human; conditions: for Decrease in FPG from baseline after correcting for changes in placebo values: after 28 days; for OGTT glucose excursions above baseline FPG lower than placebo: corrected for FPG at hour 0
[2] = 28-day study: plasma LX4211 pharmacokinetics; assay type: in vivo, human; conditions: for Tmax: both, human, plasma, oral
patients with T2DM [3] = assay: Single-dose three-way crossover study: pharmacodynamics; assay type: in vivo, human
healthy volunteers = assay: Phase I trial in healthy volunteers; assay type: in vivo, human; conditions: 300-mg dose, phase I trial (data not shown)
patients with T2DM [4] = assay: 28-day study: safety, adverse events and clinical laboratory values
humans = conditions: taken orally at high doses; ref [46]; cited from earlier work
[5] = ref [47],[48]; cited from earlier work
[6] = single 300-mg dose of any of the LX4211 formulations
[7] = 150 or 300 mg once daily for 28 days

Time after dosing at which Cmax appeared ([2]; 150 and 300 mg, oral liquid): 0.5 to 2.0 h
Dose proportionality of increases in Cmax and AUC ([2]; 150 vs 300 mg): slightly more than dose-proportional
Steady state reached ([2]; based on Cmax, AUC0–tau, Cmin, possibly even by day 7): ≤ 14 days
Tmax ([2]; Median tmax, days 14 and 28, the two dose groups): 1 to 1.5 h
Tmax ([2]; tmax, individual values, the two dose groups): 0.48 to 2.02 h
Time at which plasma concentrations were detected ([2]; each LX4211 dose, oral liquid): ≤ 15 min
SMILES: CCOc1ccc(Cc2cc([C@@H]3O[C@H](SC)[C@@H](O)[C@H](O)[C@H]3O)ccc2Cl)cc1 [LX4211, (2S,3R,4R,5S,6R)-2-(4-chloro-3-(4-ethoxybenzyl)phenyl)-6-(methylthio)tetrahydro-2H-pyran-3,4,5-triol]
FPG reduction from baseline (patients with T2DM [1]; 150 mg once daily, day 7, placebo 9 mg/dl increase): 30 mg/dL
Decrease in FPG from baseline after correcting for changes in placebo values (patients with T2DM [1]; 150 mg): 39 mg/dL
Net 24-h UGE increase relative to placebo (patients with T2DM [1]; 150 mg, day 1): 44 g/day
OGTT glucose AUC (hour 0 to 4) lower than placebo (patients with T2DM [1]; 150 mg, day 2): 30%
OGTT glucose AUC (hour 0 to 4) lower than placebo (patients with T2DM [1]; 150 mg, day 13): 35%
OGTT glucose AUC (hour 0 to 4) lower than placebo (patients with T2DM [1]; 150 mg, day 27): 38%
OGTT glucose excursions above baseline FPG lower than placebo (patients with T2DM [1]; 150 mg, day 27): 46%
Decrease from baseline HbA1c after correcting for changes in placebo values (patients with T2DM [1]; 150 mg, day 28): 0.66
Net 24-h UGE increase relative to placebo (patients with T2DM [1]; 150 mg, day 28): 37 g/day
Decrease in FPG from baseline after correcting for changes in placebo values (patients with T2DM [1]; 300 mg): 55 mg/dL
Net 24-h UGE increase relative to placebo (patients with T2DM [1]; 300 mg, day 1): 65 g/day
OGTT glucose AUC (hour 0 to 4) lower than placebo (patients with T2DM [1]; 300 mg, day 2): 30%
OGTT glucose AUC (hour 0 to 4) lower than placebo (patients with T2DM [1]; 300 mg, day 13): 36%
OGTT glucose AUC (hour 0 to 4) lower than placebo (patients with T2DM [1]; 300 mg, day 27): 39%
OGTT glucose excursions above baseline FPG lower than placebo (patients with T2DM [1]; 300 mg, day 27): 46%
Decrease from baseline HbA1c after correcting for changes in placebo values (patients with T2DM [1]; 300 mg, day 28): 0.76
Net 24-h UGE increase relative to placebo (patients with T2DM [1]; 300 mg, day 28): 48 g/day
Amount of glucose excreted in the first 8 h vs the period spanning 8–24 h (patients with T2DM [1]; LX4211-treated groups): comparable
Total GLP-1 levels after meals (patients with T2DM [1]; LX4211-treated groups, day 1 (similar on day 28), post hoc analysis): nonsignificant increase
Mean serum triglyceride (TG) level (fell to within the normal range) (patients with T2DM [1]; both LX4211-treated groups (150 and 300 mg), by day 14): < 151 mg/dL
Mean homeostasis model assessment of insulin resistance vs placebo (patients with T2DM [1]; both LX4211 groups, day 27): significantly lower
Serum TG vs placebo (patients with T2DM [1]; both doses, post hoc analysis): statistically significant TG reductions
24-h UGE vs placebo (patients with T2DM [1]; both treatment groups, days 1, 14 and 28): significantly increased
2-h postprandial glucose (PPG) levels vs placebo (patients with T2DM [1]; each treatment group, days 1, 7, 21 and 28): significantly lowered
Patients with HbA1c levels ≤7.0% (patients with T2DM [1]; patients who received LX4211 (150 or 300 mg), day 28, placebo 18%): 50%
Glucagon values vs day −1 (patients with T2DM [3]; single 300-mg dose): not altered
Plasma insulin between 0 and 13 h vs day −1 (patients with T2DM [3]; [6]): significantly decreased
Total GLP-1 between 0 and 13 h vs day −1 (patients with T2DM [3]; [6]): significantly increased
Total PYY between 0 and 13 h vs day −1 (patients with T2DM [3]; [6]): significantly increased
UGE over the next 24 h vs pretreatment day (day −1) (patients with T2DM [3]; [6]): significantly increased
Tolerability and glycosuric effect (healthy volunteers): well tolerated and produced a maximal glycosuric effect
Renal toxicity (laboratory data) (patients with T2DM [4]; [7]): no evidence of renal toxicity
Treatment-emergent urinary tract infections, genital infections, CV events, episodes of hypoglycemia (patients with T2DM [4]; [7]): no treatment-emergent urinary tract infections, genital infections, CV events, or episodes of hypoglycemia
24-h urine volume relative to placebo (patients with T2DM [4]; LX4211-treated groups, day 1): slight but nonsignificant increase
Urinary calcium excretion (patients with T2DM [4]; LX4211-treated groups, days 1, 14, 28): at no time during the study was urinary calcium excretion increased
Safety and tolerability (patients with T2DM [4]; at the doses and schedule employed (150 or 300 mg once daily, 28 days)): safe and well tolerated
Urinary sodium and chloride excretion relative to placebo (patients with T2DM [4]; day 1, statistically significant in the 300 mg group): modest increases
Frequency of gastrointestinal side effects relative to placebo (patients with T2DM [4]; even after challenge with 75 g of glucose during OGTTs): did not observe an increase

SMILES: O=C(CCc1ccc(O)cc1)c1c(O)cc(O)cc1O[C@@H]1O[C@H](CO)[C@@H](O)[C@H](O)[C@H]1O [Phlorizin, phlorizin]
Nausea (humans): induces nausea
Conversion in the small intestine [5]: rapidly converted to phloretin
